This passage reports IC50 results from PubChem BioAssay AID1431 (PCMD, 2008).

Molecules are shown by their SMILES. Activity calls are given as the source filed them. How the calls were made is not given here.

The experiment deals with Kallikrein-5 (Homo sapiens) (UniProt Q9Y337). The experiment can be described thus: human KLK5 inhibitor potency, dose response, biochemical, 1536-well (AID 1431). Conditions: recombinant KLK5 enzyme activity, fluorogenic substrate.
Chain of Kallikrein-5 (Homo sapiens) (Q9Y337 67-293 limits assumed): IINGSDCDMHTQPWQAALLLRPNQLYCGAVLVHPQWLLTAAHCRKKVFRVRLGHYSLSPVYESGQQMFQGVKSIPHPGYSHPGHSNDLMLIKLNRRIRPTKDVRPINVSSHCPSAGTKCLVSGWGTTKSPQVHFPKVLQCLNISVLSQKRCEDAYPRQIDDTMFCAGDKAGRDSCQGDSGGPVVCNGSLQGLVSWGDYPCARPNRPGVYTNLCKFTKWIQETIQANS
Broadly, the IC50 is the concentration that inhibits the measured activity by half. Regarding `CC1CC(C)(C)n2c(O)c(N=NC(N)=S)c3cccc1c32` (stereo unspecified), the IC50 was > 50 µM (inactive).
In the case of `CCC(=O)N1c2ccccc2NC2=C(C(=O)CCC2)C1c1ccc(N(C)C)cc1` (stereo unspecified), the IC50 is > 50 µM (inactive).
With `CCOC(=O)c1ccc(N=C(c2ccccc2)c2c(O)n(C)c(=O)n(C)c2=O)cc1` the figure was > 50 µM (inactive).
Consider `N#Cc1c(N)nc2c3c(sc(=N)c2c1N)NC(=O)CC3c1c(F)cccc1Cl` (stereo unspecified), for which the IC50 is > 50 µM (inactive).
With `O=C1CC(c2ccccc2)CC(O)=C1C=NCCN1CCN(C(=S)Nc2cccc(Cl)c2)CC1` (stereo unspecified) the figure was > 50 µM (inactive).
Consider `Cc1cc(N2C(=O)CC(Cc3ccc(Cl)cc3)C2=O)no1` (stereo unspecified), for which the IC50 was > 50 µM (inactive).
With `CCC/S(C)=N/S(=O)(=O)c1ccc(C)cc1` (stereo unspecified) the figure was > 50 µM (inactive); with `CCOc1cc(/C=N/Nc2nc(Nc3ccccc3)nc(N3CCCCC3)n2)ccc1OCC(=O)O`, > 50 µM (inactive); with `COC(=O)c1[nH]c(C)c(/C(O)=C2\C(=O)C(=O)N(CCN(C)C)C2c2cccc(OC)c2OC)c1C` (stereo unspecified), > 50 µM (inactive).
On to `O=C(N/N=C\c1cccc([N+](=O)[O-])c1O)C1COc2ccccc2O1` (stereo unspecified), for which the IC50 was > 50 µM (inactive).
Turning to `COC(/C=C/Nc1ccc(Br)cc1)=C(C#N)C#N`, the IC50 is > 50 µM (inactive).
Turning to `CC(=O)C1=C(C)NC(C)=C(C(C)=O)C1c1cccs1`, the IC50 is > 50 µM (inactive).
For the compound `Cc1ccc(Cn2c(O)c(N=NC(=S)Nc3ccccc3F)c3cc(S(=O)(=O)N4CCOCC4)ccc32)cc1`, the IC50 is > 50 µM (inactive).
With `COc1ccc2c(c1)C(c1ccc(N3CCOCC3)cc1)=NNC(c1cccnc1)=N2` the figure was > 50 µM (inactive); with `CC(=O)c1ccc(N2C(=O)C3C(C2=O)C(C(=O)c2ccc(Cl)cc2)N2CCCC32)cc1` (stereo unspecified), > 50 µM (inactive).
With `CC(C)(CO)N=Cc1c(O)[nH]c2ccccc12` the figure was > 50 µM (inactive); with `CC1(C)CC(=O)CC(=NCC(=O)O)C1`, > 50 µM (inactive).
For the compound `COc1cccc(/C(O)=C2/C(=O)C(=O)N(CCCN3CCOCC3)C2c2ccncc2)c1` (stereo unspecified), the IC50 is 46.3 µM.
With `COc1ccc(N2C(=O)CC(Nc3cccc([N+](=O)[O-])c3)C2=O)cc1` (stereo unspecified) the figure was > 50 µM (inactive); with `COc1ccc2c(c1)C(c1ccc([N+](=O)[O-])cc1)=NNC(c1ccco1)=N2`, > 50 µM (inactive).
On to `Cc1cc(C)n(CC2CC(=O)N(c3ccc(Cl)c(Cl)c3)C2=O)n1` (stereo unspecified), for which the IC50 is > 50 µM (inactive).
With `Cc1c(-c2cccs2)[n+](=O)c2c(n1[O-])CCC2` the figure was > 50 µM (inactive); with `N#CC1=C(N)NC(SCc2ccccc2)=C(C#N)C12CCCC2`, > 50 µM (inactive); with `Cc1ccc(-c2[nH]nc3c2C(c2ccoc2)C(C#N)=C(N)O3)cc1C` (stereo unspecified), > 50 µM (inactive).
Turning to `N#C/C(=N\O)c1nc2ccccc2s1`, the IC50 was > 50 µM (inactive).
With `Cc1cc(/C(O)=C2\C(=O)C(=O)N(CCN(C)C)C2c2ccncc2)ccc1OCc1ccccc1` (stereo unspecified) the figure was > 50 µM (inactive).
For the compound `Cc1ccccc1NC(=O)Cn1c(O)c(N=NC(=O)c2ccccc2O)c2ccccc21`, the IC50 was > 50 µM (inactive).
With `O=C1CC(Nc2ccccc2)C(=O)N1c1ccc(N2CCOCC2)cc1` (stereo unspecified) the figure was > 50 µM (inactive); with `COc1ccc2cc(C3C(C#N)=C(N)OC(C)=C3C(C)=O)c(Cl)nc2c1` (stereo unspecified), > 50 µM (inactive); with `Cc1cc(N/N=C/c2ccc(O)cc2)nc(NS(=O)(=O)c2ccccc2)n1`, > 50 µM (inactive).
Take `O=C1CC(SCc2nc3ccccc3[nH]2)C(=O)N1c1ccc(F)cc1` (stereo unspecified): the IC50 is > 50 µM (inactive).
With `O=C(O)c1cc(/C=N\O)ccc1OCc1ccccc1` the figure was > 50 µM (inactive).
With `COc1ccc(OC)c(/C=N/Nc2cc(C)nc(N3CCOCC3)n2)c1` the figure was > 50 µM (inactive).
As for `CCCC(C)C1C(C#N)=C(N)Oc2c1c(=O)oc1ccccc21` (stereo unspecified), the IC50 is > 50 µM (inactive).
Turning to `CCOC(=O)C1=C(CC)Nc2ccccc2N=C1NC(=O)CCN1C(=O)C2CCCCC2C1=O` (stereo unspecified), the IC50 was > 50 µM (inactive).
With `COC(=O)c1cc(N2C(=O)C3C(C2=O)C2(C)C=CC3(C)O2)ccc1Cl` (stereo unspecified) the figure was > 50 µM (inactive); with `CC1=C(C(=O)N2CCCCC2)C(c2cccs2)C2=C(CCCC2=O)N1` (stereo unspecified), > 50 µM (inactive); with `O=C1CC(Sc2ccc(Cl)cc2)C(=O)N1c1ccc2c(c1)OCCO2` (stereo unspecified), > 50 µM (inactive).
With `CCOC(=O)C1CCCN(C2CC(=O)N(c3ccc(C)cc3)C2=O)C1` (stereo unspecified) the figure was > 50 µM (inactive); with `O=C(Nc1ccccc1)c1cccc(N2C(=O)CCC2=O)c1`, > 50 µM (inactive); with `O=c1c(/C=N/O)c(Nc2ccccc2)nc2ccccn12`, > 50 µM (inactive).
Regarding `COc1ccc(C2C(C(=O)Nc3ccccc3OC)=C(C)Nc3ncnn32)cc1` (stereo unspecified), the IC50 is > 50 µM (inactive).
As to `CC1=C(C(N)=O)C(c2ccccn2)n2nc(-c3ccccc3Cl)nc2N1` (stereo unspecified), the IC50 is > 50 µM (inactive).
`Cc1ccc(NC2c3ncccc3C(=O)N2c2ccccc2C)cc1C` (stereo unspecified): the IC50 was 5.53 µM.
With `Cc1cccc(NC2SC(=O)N(c3ccccc3)C2=O)c1` (stereo unspecified) the figure was > 50 µM (inactive); with `O=C1C(C=NCCCN2CCOCC2)=C(O)c2ccccc21`, > 50 µM (inactive); with `COc1ccc(N2C(N)=C(C#N)C(c3cccnc3)C3=C2CC(C)(C)CC3=O)cc1` (stereo unspecified), > 50 µM (inactive).
With `CC1(C)CC(=O)C(C=Nc2ccccc2Sc2ccccc2)=C(O)C1` the figure was > 50 µM (inactive); with `COc1ccc(CN2C(=O)c3cccnc3C2Nc2cc(Cl)ccc2OC)cc1` (stereo unspecified), 7.23 µM; with `Oc1ccc2ccccc2c1C=NC12CN3CCN(CN(C3)C1)C2`, > 50 µM (inactive).
For `COc1cccc(N2CCN(C3CC(=O)N(c4ccc(F)c(Cl)c4)C3=O)CC2)c1` (stereo unspecified), the IC50 was > 50 µM (inactive).
With `CCN(CC)C(=O)c1sc(NC(=O)Cc2ccccc2)c(C#N)c1C`, the IC50 was > 50 µM (inactive).
With `COc1ccc(Oc2ccccc2/C=N/O)cc1` the figure was > 50 µM (inactive); with `CC(C)n1c(=O)c(C=Nc2ccc(Br)cc2)c(O)n(Cc2ccco2)c1=O`, > 50 µM (inactive).
With `COC(=O)c1sc(N2C(=O)C(O)=C(C(=O)c3ccc(C)o3)C2c2ccc(F)cc2)nc1C` (stereo unspecified) the figure was > 50 µM (inactive); with `O=c1[nH]c(=O)n(Cc2ccco2)c(O)c1C=NCc1ccco1`, > 50 µM (inactive); with `CCC(=O)N1CCN(CCN=CC2=C(O)CC(C)(C)CC2=O)CC1`, > 50 µM (inactive).
With `COc1cccc(N2C(=O)CC(NNc3nc4ccccc4s3)C2=O)c1` (stereo unspecified) the figure was > 50 µM (inactive).
With `O=C(N/N=C/c1cc([N+](=O)[O-])ccc1O)c1cccc2cc[nH]c12`, the IC50 was > 50 µM (inactive).
With `COc1ccc(-c2[nH]nc3c2C(c2ccsc2)C(C#N)=C(N)O3)cc1` (stereo unspecified) the figure was > 50 µM (inactive); with `COc1ccc(C2C(C(C)=O)=C(O)C(=O)N2c2nccs2)cc1OC` (stereo unspecified), 26 µM; with `CCOC(=O)C1(C)C=C(Nc2cccc(OC)c2)C(=O)N1c1ccccc1` (stereo unspecified), > 50 µM (inactive).
For the compound `CCOC(=O)C1=C(N)OC2=C(C(=O)CCC2)C12C(=O)N(CC(N)=O)c1ccccc12` (stereo unspecified), the IC50 was > 50 µM (inactive).
With `O=C1c2ccccc2C(=O)N1/N=C/c1ccc(O)c(O)c1O` the figure was > 50 µM (inactive).
With `Oc1cccc(NC(=S)N=Nc2c(O)[nH]c3ccccc23)c1` the figure was > 50 µM (inactive).
With `Cc1cc2c(C)nc(N/N=C/c3ccc([N+](=O)[O-])cc3)nc2o1` the figure was > 50 µM (inactive).
